According to PubChem BioAssay (NCI):
Values joined by “and” are separate entries in the source; they are usually repeats but may differ in a detail not shown here. Equal values may be shown once.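 Values below derive from 48-hour exposures of cells grown in 96-well plates, with endpoints linearly interpolated between the two concentrations bracketing the appropriate inhibition level. Here, GI50 denotes the concentration required for 50% inhibition of growth. TGI: concentration producing complete growth inhibition.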

Assays:
Test in all cases: NCI-60 cell line screen, 48 h
NCI-H460 lung = test system: NCI-H460 lung
MCF7 breast = test system: MCF7 breast
SF-539 CNS = test system: SF-539 CNS
M14 melanoma = test system: M14 melanoma
SR leukemia = test system: SR leukemia
RXF 393 renal = test system: RXF 393 renal
SK-MEL-5 melanoma = test system: SK-MEL-5 melanoma
U251 CNS = test system: U251 CNS
NCI-H23 lung = test system: NCI-H23 lung
OVCAR-4 ovarian = test system: OVCAR-4 ovarian

| Structure (SMILES) | GI50 (NCI-H460 lung) | TGI (NCI-H460 lung) | GI50 (MCF7 breast) | TGI (MCF7 breast) [µM] | GI50 (SF-539 CNS) | TGI (SF-539 CNS) | GI50 (M14 melanoma) | TGI (M14 melanoma) | GI50 (SR leukemia) | TGI (SR leukemia) [µM] | GI50 (RXF 393 renal) [µM] | TGI (RXF 393 renal) [µM] | GI50 (SK-MEL-5 melanoma) [µM] | TGI (SK-MEL-5 melanoma) [µM] | GI50 (U251 CNS) | TGI (U251 CNS) | GI50 (NCI-H23 lung) | TGI (NCI-H23 lung) [µM] | GI50 (OVCAR-4 ovarian) [µM] | TGI (OVCAR-4 ovarian) |
| --- | --- | --- | --- | --- | --- | --- | --- | --- | --- | --- | --- | --- | --- | --- | --- | --- | --- | --- | --- | --- |
| Oc1c(CN2CCN(c3ccccc3F)CC2)cc(Br)c2cccnc12 | 0.4 µM | 9.26 µM | 0.473 µM | 12.1 | 1.02 µM | 5.6 µM | 0.924 µM | 16.5 µM | 0.419 µM | 5.17 | 2.05 | 19.1 | 0.616 | > 21.4 | 0.529 µM | 11.1 µM | 1.33 µM | 25.2 |  |  |
| Cc1c(-c2nnc(-c3cc(Cl)c(Cl)cc3Cl)o2)nnn1-c1ccnc2c(C(F)(F)F)cccc12 | 21.7 µM | 42.9 µM | 20.3 µM | 45.1 | 18.5 µM | 34.4 µM | 26.2 µM | 70.5 µM | 20.6 µM | 47.5 |  |  | 17.3 | 32.5 | 19.3 µM | 37.4 µM | 26.5 µM | 81.1 | 23.9 | 65.8 µM |
| CC(CN)[C@@H]1CC[C@]2(CO)CC[C@]3(C)[C@H](CC[C@@H]4[C@@]5(C)CCC(N)C(C)(C)[C@@H]5CC[C@]43C)[C@@H]12 (stereo partly specified) | 1.84 µM | 3.49 µM | 1.57 µM | 3.52 | 1.72 µM | 3.31 µM | 1.9 µM | 3.76 µM |  |  | 1.55 | 3.07 | 1.67 | 3.08 | 1.91 µM | 3.31 µM | 1.85 µM | 3.7 | 1.61 | 3.16 µM |
| CSC1(CC(=O)N2CCCCC2)C(=O)Nc2ccccc21 (stereo unspecified) |  | > 100 µM |  | > 100 |  | > 100 µM |  | > 100 µM |  |  |  |  |  | > 100 |  | > 100 µM |  | > 100 |  | > 100 µM |
| CC(C)c1ccc2nc3ccc(C(=O)NCCN4CCN(c5ccccc5)CC4)cn3c(=O)c2c1 |  | > 100 µM |  | > 100 |  |  |  | > 100 µM |  |  |  |  |  | 7.81 |  | > 100 µM |  | > 100 |  | > 100 µM |
| COc1ccc(C2c3c(-c4ccccc4)nn(-c4ccccc4)c3Oc3ncn4nc(CC#N)nc4c32)cc1OC (stereo unspecified) |  | > 100 µM and 46.7 µM | 36.5 µM and 99.4 µM | > 100 | 19.2 µM and 2.49 µM | 36.9 µM and > 27.6 µM | 55.6 µM and 6.33 µM | > 100 µM and 13.3 µM |  | 33 |  |  |  | > 100 | 23.5 µM and 3.62 µM | 63.8 µM and 16.7 µM | 47.2 µM and 19.5 µM | > 100 |  | 65.9 µM and 7.38 µM |
| C/C=C/C1=CN2C(=O)c3cc(OC4OC(C)C(NC)C(C)(O)C4O)c(C)c(O)c3N=C[C@@H]2C1 (stereo partly specified) | 0.0376 µM and < 0.01 µM |  |  | 13.4 | 0.0743 µM and < 0.01 µM |  | 0.0589 µM | 0.213 µM | 0.0253 µM and < 0.01 µM |  |  |  |  |  | 0.043 µM and < 0.01 µM | 12.5 µM | 0.0784 µM and < 0.01 µM |  |  | 20.7 µM |
| COc1cc2c3c(n(CCCN4CCCC(O)C4)c(=O)c2cc1OC)-c1cc2c(cc1C3=O)OCO2 (stereo unspecified) | < 0.005 µM | 6.13 µM | 0.0107 µM | 1.31 | < 0.005 µM | 0.0384 µM | 0.0297 µM | 0.972 µM |  |  |  |  | 0.318 | 20.6 | 0.00633 µM | 0.854 µM | 0.0421 µM | 0.775 | 1.07 | 2.68 µM |
| CC1=CC(=O)c2ccc(C)cc2C1=O |  | 32.4 µM |  | 11.3 |  | 30 µM |  | 30.8 µM |  |  |  |  |  | 15 |  | 25.7 µM |  | 23.9 |  | 52.5 µM |
| C[C@@H]1OCC2(CCN(c3cnc(Sc4ccnc(N)c4Cl)c(N)n3)CC2)[C@@H]1N | > 100 µM | > 100 µM | > 100 µM | > 100 | 24.2 µM | > 100 µM | > 100 µM | > 100 µM |  |  | 3.46 | > 67.6 | > 93.3 | > 100 | 9.48 µM | > 100 µM | 1.34 µM | > 100 | 26.9 | > 100 µM |
| Nc1c2ccccc2nc2ccccc12 (tested in a mixture with another compound) | 2.12 µM | 8.99 µM | 1.59 µM | 9.72 | 2.44 µM | 8.26 µM | 1.87 µM | 3.92 µM |  |  | 1.28 | 3.27 | 1.6 | 3.01 | 2.68 µM | 10.9 µM | 1.94 µM | 5.68 | 1.84 | 6.9 µM |
| CC(=O)[O][Bi]([c]1ccccc1)[c]1ccccc1 | 18.1 µM | 36.4 µM | 2.62 µM | 7.97 | 11.1 µM | 24.3 µM | 11.4 µM | 24.5 µM |  |  | 2.45 | 7.14 | 12.8 | 25.9 | 2.6 µM | 10.9 µM | 11.5 µM | 27.8 | 13.7 | 27 µM |
| Cc1nn(C)c2cc(N(C)c3ccnc(Nc4cccc(S(N)(=O)=O)c4)n3)ccc12 | 7.87 µM | > 25 µM | 7.11 µM | > 25 | 8.01 µM | > 25 µM | 8.11 µM | > 25 µM |  |  | 5.98 | > 19.2 | 3.62 | 8.4 | 10.8 µM | > 25 µM | 6.6 µM | > 25 | 6.15 | > 25 µM |
| COc1cc(N2CCC(N3CCN(C)CC3)CC2)ccc1Nc1ncc(Cl)c(Nc2ccccc2S(=O)(=O)C(C)C)n1 | 0.604 µM | 5.11 µM | 0.114 µM | 6.75 | 1.39 µM | 2.74 µM | 1.16 µM | 2.51 µM |  |  | 0.6 | 1.86 | 1.37 | 2.67 | 1 µM | 2.4 µM | 1.05 µM | 8.1 | 0.341 | 2.17 µM |
| N#CSc1ccc(S(N)(=O)=O)cc1 |  | > 100 µM |  | > 100 |  | 68 µM |  | 45.5 µM |  |  |  | 70.6 |  | > 100 |  | 38.1 µM |  | > 100 |  | 93.1 µM |
| c1ccc2c3c(ccc2c1)-c1c(ccc2c(NCCCCN4CCCCC4)cccc12)C3 | 2.08 µM | 6.74 µM | 10.8 µM | 30.3 | 1.79 µM | 3.44 µM | 1.94 µM | 3.35 µM | 1.37 µM | 5.4 |  |  | 11 | 26.7 | 1.77 µM | 3.16 µM | 1.7 µM | 3.16 | 2.81 | > 31 µM |
| COc1ccc2c(c1)C(=O)c1c-2c(NCCN(C)C)nc2ccccc12 | 0.671 µM | 10.6 µM | 2 µM | 12.2 | 12.4 µM | 25.2 µM | 15.8 µM | 29.2 µM | 0.35 µM | 2.66 |  |  | 6.47 | 19.7 | 2.47 µM | 11.7 µM |  |  | 12.2 | 36.3 µM |
| Nc1ncnc2c1ncn2C1OC(COC2C(CO)OC(OC(C(=O)O)C(O)C(OP(=O)(O)O)C(O)C(=O)O)C(O)C2O)C(O)C1O (stereo unspecified) |  | > 100 µM |  | > 100 |  | > 100 µM |  | > 100 µM |  | > 100 |  |  |  | > 100 |  | > 100 µM |  | > 100 |  | > 100 µM |
| CN1CCN(CC(=O)N2c3cccc4cccc(c34)N(C(=O)CN3CCN(C)CC3)C2c2cn(-c3ccccc3)nc2-c2cccc([N+](=O)[O-])c2)CC1 | 2.23 µM | 4.98 µM | 1.75 µM | 3.39 | 1.69 µM | 3.19 µM | 1.75 µM | 3.34 µM |  |  | 1.58 | 3.09 | 1.7 | 3.11 | 1.9 µM | 4 µM | 2.13 µM | 5.45 | 2.25 | 5.24 µM |
| N#Cc1nn(-c2cc(=O)[nH]c3ccc(Br)cc23)c(N)c1C#N | > 100 µM | > 100 µM | 64.1 µM | > 100 | 51.7 µM | > 100 µM | > 100 µM | > 100 µM | 74.2 µM | > 100 | > 100 | > 100 | > 100 | > 100 | 88.1 µM | > 100 µM | 51.5 µM | > 100 |  |  |
| COc1ccc(C(c2cc3c(cc2O)OCO3)N2CCOCC2)cc1OC (stereo unspecified) |  | 71.9 µM |  | > 100 |  | 28.3 µM |  | 24.9 µM |  |  |  | 58.2 |  | 26.3 |  | 21.4 µM |  | 15.9 |  | 29 µM |
| Cc1ccc(NC(=O)c2cc3ccccc3cc2O)c(C)c1.Cc1ccc(NC(=O)c2cc3ccccc3cc2[O-])c(C)c1.[Ni+2] | 2.77 µM | 14.3 µM | 3.45 µM |  | 4.75 µM | 53.2 µM | 4.31 µM | 13.9 µM |  |  | 1.9 | 6.37 | 2.57 | 10.2 | 2.91 µM | 8.62 µM | 2.48 µM | 10.1 | 3.88 | 25.4 µM |
